According to patent US6482423B1, “Antimicrobial wipes which provide improved residual benefit versus gram positive bacteria” (The Procter & Gamble Company, priority 1999, dated 2002):

Tested on: Vibrio fischerio
Assay: Microtox Response Test (bioluminescence of Microtox Acute Toxicity Reagent)
Type: cell-based
Conditions: pure anionic surfactant; index from EC50 Value (ppm) decreasing bioluminescence by 50%, 5 minutes
Excerpt: The biological activity/mildness of a pure surfactant can measured directly via a Microtox Response Test hereinafter described in the Analytical Methods section and can be reported as a Microtox Response Index. By “pure surfactant” it is meant a chemical composition consisting essentially of a single surfactant entity, wherein the entity has essentially one chain length, head group and salt counter ion. From a standpoint of high biological activity, preferred anionic surfactants of the antimicrobial cleansing compositions of the present invention have a Microtox Response Index of less that about 150, more preferably less than about 100 and most preferably less than about 50. […]
For surfactant compositions which are mixtures of surfactants rather than pure surfactants (this includes “commercial grade” surfactants which typically comprise mixtures of entities with different chain lengths and potentially have higher levels of impurities), the Microtox Response Index for any individual surfactant component is not a reliable measurement of biological activity or mildness. In the case of mixtures, the Microtox Index of each individual component can be determined and the weighted average used as the Index for the mixture if all the individual components of the mixture are known. […]

Compound | Microtox Index
CCCCCCCCCCCCOS(=O)(=O)O.N [ALS, ammonium lauryl sulfate] | 1.0
ammonium laureth-3 sulfate | 120
